Test results: patent US20150080475A1, “Memantine Protects Inflammation-Related Degeneration of Dopamine Neurons Through Inhibition of Over-Activated Microglia and Release of Neurotrophic Factors From Astroglia” (priority 2009, published 2015)

Key:
NMDA receptor = conditions: in vitro; cited from earlier work
microglia = assay: OX-42 immunostaining of LPS-activated microglia in neuron-glia cultures; assay type: cell-based; conditions: MMT 3 μM pretreated 30 min, twelve hours after LPS
Procedure: DA neurons were recognized with the polyclonal antibody against tyrosine hydroxylase (TH) and microglia was detected with the OX-42 antibody against CR3 receptor. Briefly, cells were fixed for 20 min at room temperature in 3.7% formaldehyde diluted in phosphate-buffered saline (PBS). After washing twice with PBS, the cultures were treated with 1% hydrogen peroxide for 10 min. […] To quantify cell numbers, nine representative areas per well in the 24-well plate were counted under the microscope at 100× magnification by two individuals. […]
To provide evidence of anti-inflammatory effect of MMT, the degree of inhibition of LPS-induced activation of microglia was determined by 1) morphological observation after immunostaining of microglia marker (OX-42) and 2) release of pro-inflammatory factors from activated microglia, such as extracelloualr superoxide radicals, intracellular reactive oxygen species (iROS), nitric oxide (NO), PGE2. […]

DA neurons = assay: Neurotrophic effect in neuron-enriched, microglia-added and microglia-depleted cultures (DA uptake); assay type: cell-based, rat
Procedure: Astrocytes, not micrglia, contribute to the neurotrophic effect of MMT. Neuron-enriched cultures were treated with vehicle and 1-10 μM MMT (FIG. 10A); 10% (5×10^4/well) of microglia were added back to neuron-enriched cultures and treated with 10 μM MMT (FIG. 10B); Depleted microglia cultures were treated with 10 μM MMT (FIG. 10C). ┌^3H┘ DA uptake was assayed 7 days after treatment. Values are mean±SEM of three independent experiments. *p<0.05, compared with corresponding vehicle-treated control cultures.
In addition to neuroprotection against LPS-induced neurotoxicity, MMT is found to have high potency of neurotrophic effect on DA neurons in rat primary mesencephalic neuron-glia cultures.
Mesencephalic neuron-glia cultures were seeded (5×10^5/well) in 24 well plates precoated with poly D-lysine. Thirty-six hours postseeding, 5-10 μM cytosine β-D-arabinofuranoside was added to the culture. After 2 days, the cytosine β-D-arabinofuranoside was removed and replaced with fresh media. Neuron-enriched cultures are 98% pure, as indicated by ICC staining with OX-42 and GFAP antibodies. Neuron-enriched cultures were treated 7 days post-seeding. For microglia add-back cultures, the microglia were plated on top of the neuron-enriched culture at 6 days postseeding, resulting in the addition of either 10% (500 μL of 1×10^5) or 20% (500 μL of 2×10^5) microglia. Cells were treated 7 days after the initial seeding of the neuron-enriched cultures.

GDNF = assay: Western blot of GDNF protein in astroglial cells; assay type: cell-based, rat; conditions: memantine 10 μM
Procedure: GDNF mediated memantine-induced neurotrophic effects. Rat primary astroglia were exposed to 10 μM memantine for various time points ranging from 0 minute to 24 h. (FIG. 5A) Total RNA was extracted. […] (FIG. 5B) The ratio of densitometry values of GDNF and β-actin was analyzed and normalized to 0 min value. (FIG. 5C) Total protein of astroglial cells was extracted. Western blot analyses were performed with the antibody to GDNF. GAPDH was used as loading control. (FIG. 5D) The ratio of densitometry values of GDNF and GAPDH was analyzed and normalized to 0 min value. Values were expressed as mean±S.E.M. of three independent experiments. *p<0.05, **p<0.01, ***p<0.001, Bonferroni t-test vs 0 min for FIG. 5B and FIG. 5D; (FIG. 5E) Neuron-glia cultures were treated with either control goat IgG (isotype Ab), or goat anti-GDNF, combined with memantine (10 μM) treatment. DA uptake capacity was measured 7 days later. Results were expressed as a percentage of the vehicle-treated control cultures and represented mean±S.E.M. of three independent experiments performed in triplicate. *p<0.05, **p<0.01, ***p<0.001, Bonferroni's test vs control; #p<0.05, Bonferroni t-test vs memantine treated cultures.
Mixed-glia cultures were first prepared from brains of 1-day-old Fisher 344 rat pups, as described previously. Briefly, mechanically dissociated brain cells (5×10^7) were seeded onto 150-cm^2 culture flasks in Dulbecco's modified Eagle's medium containing 10% heat-inactivated FBS, 2 mM L-glutamine, 1 mM sodium pyruvate, 100 μM non-essential amino acids, 50 U/ml penicillin and 50 μg/ml streptomycin. The cultures were maintained at 37° C. in a humidified atmosphere of 5% CO2 and 95% air, and medium was replenished 4 days after the initial seeding. Upon reaching confluence (usually 12-14 days later), microglia were detached from astrocytes by shaking the flasks at a speed of 180 r.p.m. for 5 h. Astrocytes were then detached with trypsin-ethylenediaminetetraacetic acid (EDTA) and seeded in the same culture medium. […]

CC12CC3CC(C)(C1)CC(N)(C3)C2.Cl [MMT, 1-amino-3,5-dimethyladamantane hydrochloride]
concentration of memantine on NMDA receptor blocking (NMDA receptor): about 10 μM | activation of OX-42 stained microglia vs LPS-treated cultures (microglia): less activated | neurotrophic effect on DA neurons (DA neurons; 10% of microglia added back to neuron-enriched cultures): not microglia-added cultures | neurotrophic effect on DA neurons (DA neurons; microglia-depleted neuron/glia culture): neurotrophic in microglia-depleted neuron/glia culture | neurotrophic effect on DA neurons (DA neurons; neuron-enriched cultures): failed to show any protective effect | GDNF protein level vs vehicle-treated control (GDNF; 6 h): significantly increased level | GDNF protein level vs vehicle-treated control (GDNF; 12 h): peaked | GDNF protein level vs vehicle-treated control (GDNF; 24 h): still expressed
